Measured values published in ChEMBL document CHEMBL5653615 (J Biol Chem, 2013).

Columns and labels:
[1] = target: Tyrosine-protein kinase BTK (Homo sapiens) (UniProt Q06187); test: Inhibition of human BTK at 18.6 nM by HotSpot assay relative to control
[2] = target: NT-3 growth factor receptor (Homo sapiens) (UniProt Q16288); test: Inhibition of human TRKC at 18.6 nM by HotSpot assay relative to control
[3] = target: T1, Aurora kinase C (Homo sapiens) (UniProt Q9UQB9); test: Inhibition of human Aurora C at 1.82 nM by HotSpot assay relative to control
T1 sequence (whole entry): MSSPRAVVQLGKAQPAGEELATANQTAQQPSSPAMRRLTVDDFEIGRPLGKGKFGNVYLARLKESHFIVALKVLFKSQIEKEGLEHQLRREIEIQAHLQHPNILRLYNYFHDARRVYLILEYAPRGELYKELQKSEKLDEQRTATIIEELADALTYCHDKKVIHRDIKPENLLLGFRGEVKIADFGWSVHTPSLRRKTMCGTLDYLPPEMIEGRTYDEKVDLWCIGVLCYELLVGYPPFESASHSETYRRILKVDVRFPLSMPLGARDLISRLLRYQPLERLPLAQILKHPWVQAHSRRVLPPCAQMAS

[4] = target: Cyclin-dependent kinase 2/cyclin E1 (Homo sapiens) (UniProt P24864+P24941); test: Inhibition of human CDK2/cyclin E at 1.82 nM by HotSpot assay relative to control; format: protein-complex assay
[5] = target: T2, Ephrin type-B receptor 2 (Homo sapiens) (UniProt P29323); test: Inhibition of human EPHB2 at 1.82 nM by HotSpot assay relative to control
T2 sequence (whole entry): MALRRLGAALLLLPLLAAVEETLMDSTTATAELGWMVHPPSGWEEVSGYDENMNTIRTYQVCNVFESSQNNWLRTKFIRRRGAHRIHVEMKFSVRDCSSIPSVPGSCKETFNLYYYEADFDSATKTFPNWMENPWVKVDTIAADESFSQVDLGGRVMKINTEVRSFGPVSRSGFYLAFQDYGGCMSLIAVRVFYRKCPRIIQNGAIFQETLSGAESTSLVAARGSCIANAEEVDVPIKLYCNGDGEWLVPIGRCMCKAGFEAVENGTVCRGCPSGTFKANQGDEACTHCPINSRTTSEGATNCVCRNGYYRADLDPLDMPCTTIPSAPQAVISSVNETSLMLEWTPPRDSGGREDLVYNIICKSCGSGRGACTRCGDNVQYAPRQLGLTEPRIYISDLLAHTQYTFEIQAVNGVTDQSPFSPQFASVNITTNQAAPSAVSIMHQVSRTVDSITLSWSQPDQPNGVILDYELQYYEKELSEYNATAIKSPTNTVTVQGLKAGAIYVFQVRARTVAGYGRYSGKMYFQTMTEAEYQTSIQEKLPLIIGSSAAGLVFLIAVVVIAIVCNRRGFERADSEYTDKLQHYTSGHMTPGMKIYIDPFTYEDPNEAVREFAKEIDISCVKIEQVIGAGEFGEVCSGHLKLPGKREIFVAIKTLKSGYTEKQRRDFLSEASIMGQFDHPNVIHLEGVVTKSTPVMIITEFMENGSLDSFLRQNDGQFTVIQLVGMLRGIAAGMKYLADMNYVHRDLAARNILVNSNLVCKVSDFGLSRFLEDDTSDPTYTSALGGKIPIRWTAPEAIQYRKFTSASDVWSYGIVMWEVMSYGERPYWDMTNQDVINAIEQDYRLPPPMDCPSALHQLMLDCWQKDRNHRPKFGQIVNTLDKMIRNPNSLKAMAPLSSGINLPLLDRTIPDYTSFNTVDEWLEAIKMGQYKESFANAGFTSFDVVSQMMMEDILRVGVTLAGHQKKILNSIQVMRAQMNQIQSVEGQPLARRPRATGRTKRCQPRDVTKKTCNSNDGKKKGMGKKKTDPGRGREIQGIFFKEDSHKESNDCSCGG

[6] = target: Glycogen synthase kinase-3 alpha (Homo sapiens) (UniProt P49840); test: Inhibition of human GSK3a at 1.82 nM by HotSpot assay relative to control
Sequence of Glycogen synthase kinase-3 alpha (Homo sapiens) (P49840 2-483 limits assumed): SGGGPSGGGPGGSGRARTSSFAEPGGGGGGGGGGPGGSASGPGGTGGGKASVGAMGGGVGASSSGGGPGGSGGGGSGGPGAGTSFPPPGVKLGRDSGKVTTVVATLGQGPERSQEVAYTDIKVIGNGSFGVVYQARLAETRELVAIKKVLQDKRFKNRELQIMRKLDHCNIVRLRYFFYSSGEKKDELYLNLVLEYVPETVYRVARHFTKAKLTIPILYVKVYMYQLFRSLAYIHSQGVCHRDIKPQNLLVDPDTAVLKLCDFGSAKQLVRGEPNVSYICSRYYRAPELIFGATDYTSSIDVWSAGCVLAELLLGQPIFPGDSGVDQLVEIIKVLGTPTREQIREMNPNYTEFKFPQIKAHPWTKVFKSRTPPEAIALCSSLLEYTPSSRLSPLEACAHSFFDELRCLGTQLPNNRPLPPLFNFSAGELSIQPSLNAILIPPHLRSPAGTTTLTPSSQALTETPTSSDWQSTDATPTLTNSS

[7] = target: Mitogen-activated protein kinase kinase kinase kinase 4 (Homo sapiens) (UniProt O95819); test: Inhibition of human HGK at 1.82 nM by HotSpot assay relative to control
Sequence of Mitogen-activated protein kinase kinase kinase kinase 4 (Homo sapiens) (O95819 2-1239 limits assumed): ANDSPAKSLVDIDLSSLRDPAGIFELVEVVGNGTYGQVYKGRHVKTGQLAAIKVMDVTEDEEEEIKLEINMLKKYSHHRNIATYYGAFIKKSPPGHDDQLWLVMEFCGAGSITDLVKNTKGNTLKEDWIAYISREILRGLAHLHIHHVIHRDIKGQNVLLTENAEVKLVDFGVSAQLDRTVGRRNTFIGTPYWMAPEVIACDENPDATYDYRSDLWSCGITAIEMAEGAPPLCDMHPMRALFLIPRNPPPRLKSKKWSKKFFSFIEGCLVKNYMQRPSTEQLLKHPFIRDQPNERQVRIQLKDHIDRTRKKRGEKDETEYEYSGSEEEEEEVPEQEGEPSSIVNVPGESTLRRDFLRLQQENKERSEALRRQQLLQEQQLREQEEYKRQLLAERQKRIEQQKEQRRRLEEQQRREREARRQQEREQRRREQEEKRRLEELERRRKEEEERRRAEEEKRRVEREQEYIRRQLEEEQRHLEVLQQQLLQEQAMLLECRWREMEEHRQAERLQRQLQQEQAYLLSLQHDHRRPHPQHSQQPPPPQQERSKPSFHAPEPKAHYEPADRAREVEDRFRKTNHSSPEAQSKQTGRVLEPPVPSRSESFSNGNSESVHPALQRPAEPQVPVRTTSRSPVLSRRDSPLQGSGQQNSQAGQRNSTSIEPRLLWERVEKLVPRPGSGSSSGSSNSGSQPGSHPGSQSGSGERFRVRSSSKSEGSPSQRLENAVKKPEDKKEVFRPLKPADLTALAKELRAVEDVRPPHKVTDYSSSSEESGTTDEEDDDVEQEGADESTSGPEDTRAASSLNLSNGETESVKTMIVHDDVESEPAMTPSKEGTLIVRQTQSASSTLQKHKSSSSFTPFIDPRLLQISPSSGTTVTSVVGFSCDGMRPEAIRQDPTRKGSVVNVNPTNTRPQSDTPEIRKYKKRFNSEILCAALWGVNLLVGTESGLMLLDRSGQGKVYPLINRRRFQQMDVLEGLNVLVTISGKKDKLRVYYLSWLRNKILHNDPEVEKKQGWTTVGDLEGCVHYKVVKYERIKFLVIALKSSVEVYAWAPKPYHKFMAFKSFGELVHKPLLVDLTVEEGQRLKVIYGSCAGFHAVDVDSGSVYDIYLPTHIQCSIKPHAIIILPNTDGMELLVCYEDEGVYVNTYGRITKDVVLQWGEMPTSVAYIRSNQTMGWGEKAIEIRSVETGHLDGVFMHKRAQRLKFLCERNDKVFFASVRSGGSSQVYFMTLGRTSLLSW

[8] = target: T3, Mitogen-activated protein kinase kinase kinase 2 (Homo sapiens) (UniProt Q9Y2U5); test: Inhibition of human MEKK2 at 1.82 nM by HotSpot assay relative to control
T3 sequence (whole entry): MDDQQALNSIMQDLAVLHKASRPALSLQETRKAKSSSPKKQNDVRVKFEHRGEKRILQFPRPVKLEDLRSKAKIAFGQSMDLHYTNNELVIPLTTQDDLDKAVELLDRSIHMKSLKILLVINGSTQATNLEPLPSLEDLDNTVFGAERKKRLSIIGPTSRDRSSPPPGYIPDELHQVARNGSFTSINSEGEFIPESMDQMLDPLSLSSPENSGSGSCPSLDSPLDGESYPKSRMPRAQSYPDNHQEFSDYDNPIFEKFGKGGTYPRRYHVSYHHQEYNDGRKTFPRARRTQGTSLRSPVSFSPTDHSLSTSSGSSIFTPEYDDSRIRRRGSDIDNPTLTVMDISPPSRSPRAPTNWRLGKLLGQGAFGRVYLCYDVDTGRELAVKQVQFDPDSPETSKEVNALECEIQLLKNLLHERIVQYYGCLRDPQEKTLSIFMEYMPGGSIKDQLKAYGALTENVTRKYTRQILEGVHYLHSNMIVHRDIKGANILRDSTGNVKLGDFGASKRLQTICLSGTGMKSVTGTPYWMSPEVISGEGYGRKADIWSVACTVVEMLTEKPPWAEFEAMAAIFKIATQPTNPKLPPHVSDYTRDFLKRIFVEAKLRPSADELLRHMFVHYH

[9] = target: T4, Serine/threonine-protein kinase NLK (Homo sapiens) (UniProt Q9UBE8); test: Inhibition of human NLK at 1.82 nM by HotSpot assay relative to control
T4 sequence (whole entry): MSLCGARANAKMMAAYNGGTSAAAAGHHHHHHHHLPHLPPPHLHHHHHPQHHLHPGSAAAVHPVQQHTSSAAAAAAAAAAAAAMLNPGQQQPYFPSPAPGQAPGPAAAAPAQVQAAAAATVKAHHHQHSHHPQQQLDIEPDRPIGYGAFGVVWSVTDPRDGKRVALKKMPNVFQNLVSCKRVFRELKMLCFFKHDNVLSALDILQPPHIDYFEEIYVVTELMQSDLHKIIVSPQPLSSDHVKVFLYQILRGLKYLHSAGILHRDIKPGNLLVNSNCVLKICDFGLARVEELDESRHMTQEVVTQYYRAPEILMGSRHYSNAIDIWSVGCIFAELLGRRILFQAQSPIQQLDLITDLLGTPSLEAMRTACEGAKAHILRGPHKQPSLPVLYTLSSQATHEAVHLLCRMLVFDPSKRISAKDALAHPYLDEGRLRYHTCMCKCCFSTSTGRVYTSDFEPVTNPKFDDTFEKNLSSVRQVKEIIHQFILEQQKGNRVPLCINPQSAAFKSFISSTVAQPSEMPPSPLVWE

Sequence of Tyrosine-protein kinase BTK (Homo sapiens) (Q06187 whole entry): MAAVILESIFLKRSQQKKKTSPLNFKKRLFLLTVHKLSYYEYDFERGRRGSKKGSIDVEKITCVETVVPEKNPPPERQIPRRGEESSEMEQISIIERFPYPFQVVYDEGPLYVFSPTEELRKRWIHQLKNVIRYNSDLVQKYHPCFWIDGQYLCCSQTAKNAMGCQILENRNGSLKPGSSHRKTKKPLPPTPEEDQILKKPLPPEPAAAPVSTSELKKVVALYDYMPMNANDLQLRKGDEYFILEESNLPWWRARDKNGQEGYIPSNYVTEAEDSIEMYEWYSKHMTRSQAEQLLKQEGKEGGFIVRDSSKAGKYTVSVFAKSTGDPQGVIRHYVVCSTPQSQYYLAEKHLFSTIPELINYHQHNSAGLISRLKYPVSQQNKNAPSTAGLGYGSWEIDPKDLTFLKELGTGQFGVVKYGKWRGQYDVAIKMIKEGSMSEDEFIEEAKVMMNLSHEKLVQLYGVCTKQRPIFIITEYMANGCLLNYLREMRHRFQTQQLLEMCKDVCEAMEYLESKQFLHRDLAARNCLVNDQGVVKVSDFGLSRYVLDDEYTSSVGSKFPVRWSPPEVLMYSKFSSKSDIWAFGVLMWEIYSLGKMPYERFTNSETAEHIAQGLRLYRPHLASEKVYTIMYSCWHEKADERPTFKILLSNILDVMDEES
Sequence of NT-3 growth factor receptor (Homo sapiens) (Q16288 32-839 limits assumed): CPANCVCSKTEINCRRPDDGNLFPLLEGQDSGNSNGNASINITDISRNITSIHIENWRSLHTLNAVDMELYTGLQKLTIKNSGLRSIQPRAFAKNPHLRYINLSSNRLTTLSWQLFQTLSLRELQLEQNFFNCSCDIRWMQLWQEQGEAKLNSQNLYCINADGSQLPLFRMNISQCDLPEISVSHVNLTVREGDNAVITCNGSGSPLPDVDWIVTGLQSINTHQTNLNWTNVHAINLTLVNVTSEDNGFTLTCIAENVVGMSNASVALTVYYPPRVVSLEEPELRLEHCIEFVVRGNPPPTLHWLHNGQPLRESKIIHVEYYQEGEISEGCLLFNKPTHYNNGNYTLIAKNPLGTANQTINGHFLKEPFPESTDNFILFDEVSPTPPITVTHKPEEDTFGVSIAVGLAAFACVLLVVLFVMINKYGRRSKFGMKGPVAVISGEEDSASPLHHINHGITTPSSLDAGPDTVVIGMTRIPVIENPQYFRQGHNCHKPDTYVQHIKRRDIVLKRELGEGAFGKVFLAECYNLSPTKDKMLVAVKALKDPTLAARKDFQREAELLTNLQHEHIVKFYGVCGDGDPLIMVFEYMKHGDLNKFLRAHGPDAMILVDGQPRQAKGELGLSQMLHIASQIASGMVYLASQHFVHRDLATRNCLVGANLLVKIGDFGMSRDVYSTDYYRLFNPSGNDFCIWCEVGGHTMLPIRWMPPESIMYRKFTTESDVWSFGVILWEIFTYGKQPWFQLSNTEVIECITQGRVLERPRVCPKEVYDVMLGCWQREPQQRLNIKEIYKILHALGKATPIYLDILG

| Compound | inhibition [1] [%] | inhibition [2] [%] | inhibition [3] [%] | inhibition [4] [%] | inhibition [5] [%] | inhibition [6] [%] | inhibition [7] [%] | inhibition [8] [%] | inhibition [9] [%] |
| --- | --- | --- | --- | --- | --- | --- | --- | --- | --- |
| C[C@]1(O)C[C@@H](c2nc(-c3ccc4ccc(-c5ccccc5)nc4c3)c3c(N)nccn32)C1 | -1.94 | 0.03 | – | – | – | – | – | – | – |
| C[C@@]1(C(=O)Nc2ccc(F)nc2)CCCN1c1nc(Nc2cc(C3CC3)n[nH]2)c2cccn2n1 | – | – | 35.7 | 3.51 | -7.51 | 4.1 | -4.23 | -7.18 | 2.48 |
